# Assay results from US8648195B2, “Stabilized crystal of 2-ethyl-3,7-dimethyl-6-(4-(trifluoromethoxy)phenoxy)quinoline-4-yl methyl carbonate, process for producing the crystal, and agricultural chemical composition comprising the crystal” (priority 2010, dated 2014).
# Key:
# [1] = tested on: Lepidoptera, Hemiptera, Coleoptera, Acari, Hymenoptera, Orthoptera, Diptera, and Order Thysanoptera; conditions: patent documents 5 and 6; cited from earlier work
# [2] = Storage test of aqueous suspension formulations (54° C., 2 weeks): particle size and properties; type: physicochemical; conditions: conclusion from storage test
# Method: The aqueous suspension formulations of Example 2 and Comparative Example 1 were stored at 54° C. for 2 weeks, and a change in quality between before and after the storage was observed. The size of crystals before and after the storage test was measured with a laser diffraction particle size distribution measuring apparatus and under an optical microscope. [Measurement with Laser Diffraction Particle Size Distribution Measuring Apparatus] Apparatus used: Laser diffraction particle size distribution measuring apparatus SALD-2200 manufactured by Shimadzu Corp The floable formulation diluted with water after the storage test was used for the measurement of particle size with the above measuring apparatus. The A crystal form after the storage could not be suspended in water, and, thus, instead of the suspension, before use in test, was exposed to ultrasonic waves until coarse particle nuclei disappeared. [Measurement Under Optical Microscope] Apparatus used: Digital microscope VHX-200 manufactured by Keyence Corp. Images of the water-diluted floable formulations after the storage test were taken with the apparatus (magnification: 1500 times). The major axes of crystals in the images were measured, and the average was calculated. […]
SMILES,Insecticidal activity [1],Physicochemical and storage stability of the crystal form [2]
"CCc1nc2cc(C)c(Oc3ccc(OC(F)(F)F)cc3)cc2c(OC(=O)OC)c1C [Compound I, 2-Ethyl-3,7-dimethyl-6-(4-(trifluoromethoxy)phenoxy)-quinoline-4-yl methyl carbonate]",high insecticidal activity,
"CCc1nc2cc(C)c(Oc3ccc(OC(F)(F)F)cc3)cc2c(OC(=O)OC)c1C [Example 1, 2-ethyl-3,7-dimethyl-6-(4-(trifluoromethoxy)phenoxy)quinoline-4-yl methyl carbonate]",,high storage stability
